Values after ≈ are worked out from the molar mass of the structure shown. Square brackets hold non-standard residues; d marks the D form. Peptide text beside a SMILES is read from it.
Tests used:
[1] = tested on: human breast MCF-7 cells; assay: Xenograft model of human breast MCF-7 cells in SCID mice; assay type: in vivo
Procedure: The in-vivo anticancer assay was conducted on SCID (Severe Combined Immune Deficiency) mice using the xenograft model of human breast MCF-7 cells. Groups of 6 SCID female mice weighing 18-20 g (6-week old), bred in an animal isolator (IVC racks under specific pathogen-free (SPF) conditions at 24±1° C., were used. Viable human breast carcinoma MCF-7 cells (ATCC HTB-22−1×10^7 cells in 0.2 ml of PBS) were injected subcutaneously (s.c.) into the dorsal side of SCID mice. 50 μg/mouse of estradiol benzoate was injected s.c. weekly as a supplement for 4 weeks. […] Mitomycin at a dose of 2 mg/kg was administered intraperitoneally (IP) twice a week for 5 doses. The tumor size, body weight and the signs of overt animal toxicity after each treatment were recorded and observed. At the end of the experiment, hematological analysis was carried out.

[2] = tested on: Cryptococcus neoformans ATCC 66031; assay type: cell-based
Procedure: (§1) The antifungal activity of the diastereomers was examined in sterile 96-well plates (Nunc F96 microtiter plates) in a final volume of 200 μL as follows: 100 μl of a suspension containing fungi at concentration of 1×10^4 Colony-Forming Units (CFU)/ml in culture medium (RPMI 1640, 0.165 M MOPS pH 7.0, with L-glutamine, without NaHCO3) was added to 100 μl of water containing the peptide in serial 2-fold dilutions in water. The fungi were incubated in the presence of the diastereomeric peptides for 24-48 h at 35° C. in a Binder KB115 incubator under agitation. Growth inhibition was determined by measuring the absorbance at 620 nm with a Microplate autoreader E1309 (Bio-tek Instruments). Antifungal activity is expressed as the minimal inhibitory concentration (MIC), the concentration at which 100% inhibition of growth was observed after the incubation time mentioned above. The fungi used were: Aspergillus niger ATCC 9642, Candida albicans ATCC 10231 and Cryptococcus neoformans ATCC 66031.

[3] = tested on: Aspergillus niger ATCC 9642; assay type: cell-based; settings: ATCC 9642
Procedure: as §1

[4] = tested on: Candida albicans ATCC 10231; assay type: cell-based; settings: ATCC 10231
Procedure: as §1

[5] = Hematology analysis on Day 25, MEAN ± SEM
[6] = hematological analysis at the end of the assay
[7] = peptide 9 3 mg/kg IV, mitomycin 2 mg/kg IP

Row | SMILES | PLT [1, 5] | RBC [1, 5] | WBC [1, 5] | Reduction of RBC [1, 6] | Reduction of WBC and platelets [1, 6] | Effect on tumor growth (FIG. 1) ([1]; peptide 9 3 mg/kg IV twice a week, 6 doses, mitomycin 2 mg/kg IP twice a week, 5 doses) | Body weight and condition of animals (FIG. 2) [1, 7] | Side effects in treated animals [1, 7] | MIC, C. neoformans ATCC 66031 [2] | MIC, A. niger ATCC 9642 [3] | MIC, C. albicans ATCC 10231 [4]
1 | CO[C@@]12[C@H](COC(N)=O)C3=C(C(=O)C(C)=C(N)C3=O)N1C[C@@H]1N[C@@H]12 [Mitomycin C, mitomycin C] | 396000 µL⁻¹ | 10.55 ± 0.37 × 10^6/μl | 670 µL⁻¹ | significant reduction | significant reduction | more potent than peptide 9 | signs of weakness and loss of weight | severe side effects throughout the assay period |  |  | 
2 | CC(C)C[C@H](NC(=O)[C@H](CC(C)C)NC(=O)[C@@H](CCCCN)NC(=O)[C@H](CC(C)C)NC(=O)[C@H](CC(C)C)NC(=O)[C@H](CCCCN)NC(=O)[C@@H](CCCCN)NC(=O)[C@@H](CC(C)C)NC(=O)[C@H](CC(C)C)NC(=O)[C@H](CCCCN)NC(=O)[C@H](CCCCN)NC(=O)[C@H](CC(C)C)NC(=O)[C@@H](CC(C)C)NC(=O)[C@H](CCCCN)NC(=O)[C@@H](N)CC(C)C)C(N)=O [Peptide 3, [D]-L^3,8,K^9,13-K6L9] (H-LK[dL]LKKL[dL][dK]KLL[dK]LL-NH2; N-terminus assumed) |  |  |  |  |  |  |  |  | 2.8 µg/mL (≈ 1.55 µM) | 90 µg/mL (≈ 49.9 µM) | 40 µg/mL (≈ 22.2 µM)
3 | CC(C)C[C@H](NC(=O)[C@H](CC(C)C)NC(=O)[C@@H](CCCCN)NC(=O)[C@H](CC(C)C)NC(=O)[C@H](CC(C)C)NC(=O)[C@H](CCCCN)NC(=O)[C@@H](CCCCN)NC(=O)[C@@H](CC(C)C)NC(=O)[C@H](CC(C)C)NC(=O)[C@@H](CCCCN)NC(=O)[C@H](CCCCN)NC(=O)[C@H](CC(C)C)NC(=O)[C@@H](CC(C)C)NC(=O)[C@H](CCCCN)NC(=O)[C@@H](N)CC(C)C)C(N)=O [Peptide 4, [D]-L^3,8,K^6,9,13-K6L9] (H-LK[dL]LK[dK]L[dL][dK]KLL[dK]LL-NH2; N-terminus assumed) |  |  |  |  |  |  |  |  | 5.6 µg/mL (≈ 3.1 µM) | 180 µg/mL (≈ 99.7 µM) | 50 µg/mL (≈ 27.7 µM)
4 | CC(C)C[C@H](NC(=O)CN)C(=O)N[C@H](CC(C)C)C(=O)N[C@@H](CC(C)C)C(=O)N[C@@H](CCCNC(=N)N)C(=O)N[C@H](CC(C)C)C(=O)N[C@@H](CC(C)C)C(=O)N[C@H](CCCCN)C(=O)N[C@H](CCCCN)C(=O)N[C@@H](CC(C)C)C(=O)N[C@@H](CC(C)C)C(=O)N[C@@H](CCCNC(=N)N)C(=O)N[C@H](CC(C)C)C(=O)N[C@@H](CC(C)C)C(=O)N[C@@H](CCCCN)C(=O)N[C@@H](CCCCN)C(N)=O [Peptide 5, [D]-L^3,6,13,K^8,9-GK4R2L9] (H-GL[dL]LR[dL]L[dK][dK]LLR[dL]LKK-NH2; N-terminus assumed) |  |  |  |  |  |  |  |  | 3 µg/mL (≈ 1.56 µM) | 50 µg/mL (≈ 26.1 µM) | 50 µg/mL (≈ 26.1 µM)
5 | CC(C)C[C@H](NC(=O)[C@H](CCCCN)NC(=O)[C@@H](CC(C)C)NC(=O)[C@H](CC(C)C)NC(=O)[C@@H](N)CCCCN)C(=O)N[C@@H](CC(C)C)C(=O)N[C@H](CCCCN)C(=O)N[C@H](CCCCN)C(=O)N[C@@H](CC(C)C)C(=O)N[C@H](CC(C)C)C(=O)N[C@@H](CCCCN)C(=O)N[C@@H](CC(C)C)C(=O)N[C@H](CC(C)C)C(=O)N[C@@H](CC(C)C)C(=O)N[C@@H](CCCCN)C(N)=O [Peptide 7, [D]-L^3,10,13,K^7,8-K6L9] (H-KL[dL]KLL[dK][dK]L[dL]KL[dL]LK-NH2; N-terminus assumed) |  |  |  |  |  |  |  |  | 2.9 µg/mL (≈ 1.61 µM) | 50 µg/mL (≈ 27.7 µM) | 50 µg/mL (≈ 27.7 µM)
